Measured values published in publication PMC6480704, “Antiproliferative Aspidosperma-Type Monoterpenoid Indole Alkaloids from Bousigonia mekongensis Inhibit Tubulin Polymerization” (Molecules, 2019).
Entries after “also recorded” stand apart in the source; their conditions may differ. Where two headings read alike, the source gives them in different places.

Key:
[1] = test system: A549 (lung carcinoma); assay: Antiproliferative SRB assay, A549; assay type: cell-based; conditions: Homo sapiens, A549, SRB assay, 72 h, read-out: IC50 A549
Description: (§1) We tested the fourteen known aspidosperma-type alkaloids (1–14) against chemosensitive KB (originally isolated from epidermoid carcinoma of the nasopharynx) and P-gp over-expressing multidrug-resistant (MDR) KB subline KB-VIN, as well as three additional human cancer cell lines, A549 (lung carcinoma), MDA-MB-231 (triple negative breast cancer), and MCF-7 (estrogen receptor-positive breast cancer), using a sulforhodamine B (SRB) assay (Table 1).
(§2) Antiproliferative activity was determined by the sulforhodamine B (SRB) colorimetric assay as previously described. In brief, human tumor cell lines were cultured in RPMI-1640 medium containing 2 mM l-glutamine and 25 mM HEPES (Gibco), supplemented with 10% fetal bovine serum (Speciality Media), 100 µg/mL streptomycin, 100 IU/mL penicillin, and 0.25 µg/mL amphotericin B (Corning). MDR stock cells (KB-VIN) were maintained in the presence of 100 nM vincristine (VIN) (Sigma-Aldrich, Saint Louis, MI, USA).
(§3) Freshly trypsinized cell suspensions were seeded in 96-well microtiter plates at densities of 4000–11,000 cells per well (based on the cell lines) with compounds. After 72 h in culture with test compounds, cells were fixed in 10% trichloroacetic acid followed by staining with 0.04% sulforhodamine B (Sigma-Aldrich). The bound SRB was solubilized in 10 mM Tris-base and the absorbance at 515 nm was measured using a Microplate Reader (ELx800, Bio-Tek Instruments, Winooski, VT, USA) operated by Gen5 software (BioTek) after solubilizing the protein-bound dye with 10 mM Tris base. The mean IC50 is the concentration of agent that reduced cell growth by 50% compared with vehicle (DMSO) control under the experimental conditions and is the average from at least three independent experiments with duplicate samples.
(§4) The following human tumor cell lines were used in the assay: A549 (lung carcinoma), MDA-MB-231 (triplen-egative breast cancer), KB (originally isolated from epidermoid carcinoma of the nasopharynx), KB-VIN (VIN-resistant KB subline showing MDR phenotype by overexpressing P-gp), MCF-7 (estrogen receptor (ER)-positive, HER2-negative breast cancer). […] All cell lines were obtained from the Lineberger Comprehensive Cancer Center (UNC-CH) or from ATCC (Manassas, VA), except KB-VIN, which was a generous gift from Professor Y.-C. Cheng (Yale University). Paclitaxel was purchased from Sigma-Aldrich.

[2] = test system: MDA-MB-231 (triple negative breast cancer); assay: Antiproliferative SRB assay, MDA-MB-231; assay type: cell-based; conditions: Homo sapiens, MDA-MB-231, SRB assay, 72 h, read-out: IC50 MDA-MB-231
Description: as §1, §2, §3, §4

[3] = test system: KB (originally isolated from epidermoid carcinoma of the nasopharynx); assay: Antiproliferative SRB assay, KB; assay type: cell-based; conditions: Homo sapiens, SRB assay, 72 h, read-out: IC50 KB
Description: as §1, §2, §3, §4

[4] = test system: KB-VIN (VIN-resistant KB subline showing MDR phenotype by overexpressing P-gp); assay: Antiproliferative SRB assay, KB-VIN; conditions: Homo sapiens, KBVIN, 72 h, read-out: IC50 KB-VIN
Description: as §1, §2, §3, §4

[5] = test system: MCF-7 (estrogen receptor-positive breast cancer); assay: Antiproliferative SRB assay, MCF-7; assay type: cell-based; conditions: Homo sapiens, MCF7, SRB assay, 72 h, read-out: IC50 MCF-7
Description: as §1, §2, §3, §4

[6] = target: T1, bovine brain tubulin (Bos taurus, UniProt P81947+Q6B856); assay: Inhibition of purified tubulin assembly (turbidity); assay type: biochemical; conditions: 10 μM tubulin, 0.4 mM GTP, 20 min at 30 °C; NA = not active (IC50 > 40 µM); read-out: Tubulin Assay ITA: inhibition of purified tubulin assembly, EC50
T1 construct: electrophoretically homogeneous bovine brain tubulin; from tissue; host or cells: bovine brain
Description: (§5) Inhibitory effects of compounds on tubulin assembly were evaluated using electrophoretically homogeneous bovine brain tubulin as described previously using 1.0 mg/mL (10 μM) tubulin. The turbidity development as tubulin assembly was initiated by adding 0.4 mM GTP and followed for 20 min at 30 °C following a rapid temperature jump. Compound concentrations as EC50 values that inhibited the increase in turbidity by 50% relative to a control sample were determined. In colchicine inhibition assays, tubulin (1.0 μM) was incubated with 5.0 μM [^3H] colchicine and 5.0 μM test compound at 37 °C for 10 min, when about 40–60% of maximum colchicine binding occurs in control samples.

[7] = target: T2, tubulin (colchicine site) (Bos taurus, UniProt P81947+Q6B856); assay: Inhibition of [3H]colchicine binding to tubulin; design: species or system bovine; conditions: 5 μM [3H]colchicine, 1 μM tubulin, 5 μM test compound, 37 °C, 10 min, NA = not active; for inhibition at 5 µM: read-out: Tubulin Assay ICB: percent inhibition of [3H]colchicine binding
T2 construct: electrophoretically homogeneous bovine brain tubulin; from tissue; host or cells: bovine brain
Description: The data for 6 and 7 indicate that both alkaloids bind to tubulin and inhibit its assembly, and these effects are closely related to their antiproliferative activities against tumor cells. Thus, we further investigated whether the inhibition of tubulin polymerization was the major action of these alkaloids.
as §5

[8] = test system: KB-VIN cells; assay: Cell cycle analysis by flow cytometry (PI staining); assay type: cell-based, human; conditions: 24 h, 1 × IC50 or 3 × IC50
Description: KB-VIN cells were treated with compounds 3, 4, 6, 7, and 13 at their IC50 (1 × IC50) or three-fold IC50 (3 × IC50) concentration, and the cell cycle progression was analyzed by flow cytometer (Figure 2A).
(§6) Figure 2 Mitotic defects in KB-VIN cells treated by compounds. […] Cell cycle distributions (sub-G1, G1, S, G2/M) were analyzed using flow cytometry after staining cells with propidium iodide (PI). […] Fixed cells were stained with antibodies to α-tubulin (green) and phospho-histone H3 (pH3, red), and DAPI was used for DNA (blue). Stained cells were observed by confocal fluorescence microscope. The represented image is a projection of 15~20 optical sections acquired at 0.5~1 µm intervals. […] Bar, 0.025 mm. Additional images are available in Supplementary Figure S1.
KB-VIN cells were seeded in 12-well plates at a density of 1 × 10^5 per well and incubated overnight. […] The DNA contents of stained cells were analyzed by flow cytometer (LSRFortessa, BD Biosciences) controlled by FACSDiva software (BD Biosciences). Paclitaxel (PXL) was used at 3 or 6 µM. […] Experiments were repeated a minimum of two times.

[9] = test system: KB-VIN cells; assay: Immunofluorescence staining of α-tubulin, pH3 and DNA; assay type: cell-based, human; conditions: 24 h, 3 × IC50
Description: as §6
To determine whether the cell cycle arrest was due to an antimicrotubule effect, cells treated with compounds were analyzed by immunocytochemistry using antibodies to α-tubulin for microtubules and mitotic spindles, Ser10-phosphorylated histone H3 (pH3) for the condensed chromatins and 4′,6-diamidino-2-phenylindole (DAPI) for DNA. […] Thus, we concluded that these alkaloids are tubulin polymerization inhibitors.
Immunocytochemical analysis was performed as previously described. […] After treatment of cells with the agent for 24 h, cells were fixed with 4% paraformaldehyde in PBS and permeabilized with 0.5% Triton X-100 in PBS. Fixed cells were labeled with mouse monoclonal antibody to α-tubulin (B5-1-2, Sigma) and rabbit IgG to Ser10-phosphorylated histone H3 (p-H3) (#06570, EMD Millipore), followed by FITC-conjugated antibody to mouse IgG (Sigma) and Alexa Fluor 549-conjugated antibody to rabbit IgG (Life Technologies). Nuclei were labeled with DAPI (Sigma). Fluorescently-labeled cells were observed using a confocal microscope (Zeiss, LSM700) with ZEN (black edition) software (Zeiss). The 15~20 optical sections acquired at 0.5~1 µm intervals were stacked and reconstructed using ZEN (black edition) software. Experiments were repeated at least twice for each compound. Final images were prepared using Adobe Photoshop CS3.

[10] = test system: A549, MDA-MB-231, KB, KB-VIN, and MCF-7; assay: Antiproliferative SRB assay, values stated across several cell lines; assay type: cell-based, human; conditions: for IC50: Homo sapiens, A549, KB, KB-VIN, range stated for the group of compounds, read-out: IC50 values ranging over A549, KB and KB-VIN cells; for antiproliferative activity (in words): five human tumor cell lines including MDR subline KB-VIN
Description: as §1, §2, §3, §4

T2 sequence (P81947 whole entry): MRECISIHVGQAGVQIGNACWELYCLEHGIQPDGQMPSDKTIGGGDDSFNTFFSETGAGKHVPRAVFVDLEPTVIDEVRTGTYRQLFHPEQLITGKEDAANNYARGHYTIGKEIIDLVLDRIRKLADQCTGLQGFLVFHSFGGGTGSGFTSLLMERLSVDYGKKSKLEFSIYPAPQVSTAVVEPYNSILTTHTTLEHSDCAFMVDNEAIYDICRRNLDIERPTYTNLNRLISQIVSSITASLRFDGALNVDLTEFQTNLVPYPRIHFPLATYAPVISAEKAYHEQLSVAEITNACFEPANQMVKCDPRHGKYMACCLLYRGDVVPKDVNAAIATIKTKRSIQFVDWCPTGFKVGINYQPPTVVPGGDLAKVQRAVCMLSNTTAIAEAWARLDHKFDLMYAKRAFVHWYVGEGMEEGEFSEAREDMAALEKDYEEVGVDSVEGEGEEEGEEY
T2 sequence (Q6B856 whole entry): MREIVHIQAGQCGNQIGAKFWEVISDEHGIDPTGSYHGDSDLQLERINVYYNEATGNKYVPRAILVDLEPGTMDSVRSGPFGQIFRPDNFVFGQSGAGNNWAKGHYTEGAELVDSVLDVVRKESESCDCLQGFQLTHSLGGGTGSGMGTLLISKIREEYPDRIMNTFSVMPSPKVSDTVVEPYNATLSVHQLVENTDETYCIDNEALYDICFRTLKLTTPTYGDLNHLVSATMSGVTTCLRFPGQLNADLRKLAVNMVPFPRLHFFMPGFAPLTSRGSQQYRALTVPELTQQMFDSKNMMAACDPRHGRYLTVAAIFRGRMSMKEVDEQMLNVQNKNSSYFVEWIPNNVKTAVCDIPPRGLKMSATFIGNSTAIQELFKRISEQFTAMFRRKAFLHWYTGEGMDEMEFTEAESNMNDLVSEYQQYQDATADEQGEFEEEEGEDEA
T1 sequence (P81947 whole entry): as the sequence (P81947 whole entry) above
T1 sequence (Q6B856 whole entry): as the sequence (Q6B856 whole entry) above

Structure (SMILES) | IC50 [1] [nM] | IC50 [2] [nM] | IC50 [3] [nM] | IC50 [4] [nM] | IC50 [5] [nM] | EC50 [6] [nM] | inhibition at 5 µM [7] [%] | effect on cell cycle progression [8] | microtubule / mitotic spindle morphology [9] | fold rise in potency by a methoxy group at C-11 ([10]; 6 compared with 5, 9 compared with 8) | IC50 [10] [nM] | antiproliferative activity (in words) [10] | IC50 ([1]; positive controls, unit nM) [nM] | IC50 ([2]; positive controls, unit nM) [nM] | IC50 ([3]; positive controls, unit nM) [nM] | IC50 ([5]; positive controls, unit nM) [nM] | Tubulin Assay ICB: percent inhibition of [3H]colchicine binding [7]
CC[C@@]12CC(C(=O)OC)=C3Nc4cc(OC)ccc4[C@@]34CCN(C[C@@H]3O[C@@H]31)[C@@H]24 [Compound 6, 14,15-α-epoxy-11-methoxytabersonine] | 500 | 800 | 500 | 500 | 800 | 700 | 54 ± 0.8 | accumulation of cells in the G2/M phase; also recorded: cell cycle arrest at G2/M | dotted tubulin aggregations without spindles | ~ 60 fold | 500 to 900 | exhibited antiproliferative activity against all cell lines; also recorded: significant antiproliferative effects against all five tumor cell lines |  |  |  |  | 
COc1ccc(/C=C\c2cc(OC)c(OC)c(OC)c2)cc1O [CA-4, combretastatin A-4, reference compound] |  |  |  | 3.8 ± 0.1 |  |  | 100 ± 0.4 |  |  |  |  |  | 5.5 ± 0.1 | 8.2 ± 0.5 | 3.6 ± 0.1 | 487 ± 11 | totally inhibited
CC[C@@]12CC(C(=O)OC)=C3Nc4cc(O)ccc4[C@@]34CCN(C[C@@H]3O[C@@H]31)[C@@H]24 [Compound 7, 11-hydroxylochnericine] | 5600 ± 100 | 9800 ± 900 | 5400 ± 300 | 6100 ± 400 | 10800 ± 800 | 4600 ± 100 | 35 ± 1 | accumulation of cells in the G2/M phase; also recorded: cell cycle arrest at G2/M | dotted tubulin aggregations without spindles |  |  | exhibited antiproliferative activity against all cell lines; also recorded: significant antiproliferative effects against all five tumor cell lines |  |  |  |  | 
CC[C@@]12CC(C(=O)OC)=C3Nc4ccccc4[C@@]34CCN(C[C@@H]3O[C@@H]31)[C@@H]24 [Compound 5, lochnericine] | > 40000 | > 40000 | > 40000 | > 40000 | > 40000 | > 40000 | 0 |  |  |  |  | essentially inactive |  |  |  |  | 
CC[C@]12C=C[C@@H](CC(C)=O)N3CC[C@]4(C(=C(C(=O)OC)C1)Nc1ccccc14)[C@@H]32 [Compound 3, 3α-acetonyl-tabersonine] | 600 | 900 | 600 | 600 ± 100 | 2200 ± 200 |  |  | accumulation of cells in the G2/M phase; also recorded: cell cycle arrest at G2/M | dotted tubulin aggregations without spindles |  | 500 to 900 | exhibited antiproliferative activity against all cell lines; also recorded: significant antiproliferative effects against all five tumor cell lines |  |  |  |  | 
